“Also recorded” adds a separate entry of the source. Where two headings read alike, the source gives them in different places. Positions of bridges follow the written chain, without caps; N, C: chain ends. Non-standard residues stand in square brackets, D forms with d. Residues, ends and D or L forms follow the SMILES beside them. *: point of attachment. Heptanoyl(6-Me) = CC(C)CCCCC(=O)*; X1 = CC[C@H](C)CCCCC(=O)*; Dab = NCC[C@H](N)C(=O)O
How the values were obtained:
[1] = Autosampler stability of processed colistin rat plasma samples at 4 °C
Protocol: (§1) Colistin sulfate was prepared by dissolving 5.5 mg of the powder in 5 ml water to make a stock solution of 1 mg/ml of colistin. PMB sulfate solution of 1 mg/ml was also prepared by dissolving 5.8 mg of PMB sulfate powder in 5 ml water. Both solutions were stored at −70 °C. Calibration standards and quality controls were prepared by spiking different amounts of colistin sulfate stock solution in plasma. Aliquots of colistin sulfate were further diluted to provide standard concentrations of 0.5, 1, 2, 5, 10, 15, and 20 μg/mL (equivalent to: 78, 156, 312, 780, 1560, 2340 and 3120 ng/ml of colistin A and 353, 706, 1412, 3350, 7060, 10590 and 14120 ng/ml of colistin B) whereas, the concentrations of 1.5, 3.5, 7.5 and 17.5 μg/mL (which contained 234, 546, 1170 and 2730 ng/ml of colistin A and 1059, 2471, 5295 and 12355 ng/ml of colistin B) were considered as quality controls. The calibration standards and quality controls were aliquoted (150 μL) into 0.5 ml Eppendorf tubes and stored at −70 °C pending analysis.
(§2) To 100 μl rat plasma sample, 5 μl of 500 μg/ml IS was added and followed by addition of 400 μl of 50:50 (v/v) methanol-TCA (10%). The samples were vortex-mixed for 1 min, rota-mixed for 10 min at 40 rpm and then centrifuged at 12,000 rpm for 10 min. Following centrifugation, 400 µl of the supernatant was collected and re-extracted with solid phase extraction (SPE) using SPE (Oasis HLB 1 cc, 30 mg) cartridges. First, the cartridges were conditioned with 500 μl of methanol then 500 μl of water. After that, 400 μl of the supernatant was transferred and then washed with 500 μl of water. The tubes were changed and then the samples were eluted with 150 μl of methanol: water: formic acid (80:19:1%, v/v/v) solution. The elution step was repeated twice, and then 250 μl of the solution was transferred to the low volume inserts and 20 μl of this solution was injected into the LC-MS system.
(§3) Various types of stability tests including freeze-thaw stability and long-term stability were assessed. The freeze-thaw stability test was performed by removing the four QC samples out of the storage temperature (−70 °C) and keeping them at room temperature (25 °C) until thawing and then aliquots of the samples were analyzed. After that, the samples were again returned back for freezing in the same storage conditions for 12 to 24 h. The freeze-thaw cycles were repeated five times and 4 replicates of the analytes were assayed. In addition, a long-term stability test was performed to ensure that the stability of the samples for a time that exceeds the interval between the first sample collection and the last sample analysis. Four aliquots of low, medium and high concentrations (QC) were kept for 20 days in the same temperature used to store samples regularly at the lab (−70 °C) then analyzed and compared to the nominal concentration of freshly prepared QC samples. Moreover, the stability in the autosampler (4 °C) was assessed by keeping the processed samples under this condition and assayed periodically at different times for up to 24 hours. In addition, benchtop stability test was performed by keeping the samples at room temperature (25 °C) for six hours and analyzing them during this time. The mean value results of stability tests were calculated and compared to the nominal concentrations.

[2] = Benchtop stability of colistin in rat plasma samples at room temperature; conditions: rat plasma, stored for 6 hours at room temperature (25 °C), LC-MS/MS
Protocol: as §1, §2, §3

[3] = cited from earlier work
Source text: Following the validation of the present analytical method, the method was applied to estimate the pharmacokinetic profile of colistin in experimental rats. Choosing the animal species to perform the pharmacokinetic study was based on the similarity of colistin pharmacokinetic profile between animal species and humans. […] The species that has the closest pharmacokinetic profile to humans are rats[43]–[45]. […] This is because of a distribution phase that occurs before the decline in the colistin concentration. This finding is in agreement with previous reports[43],[44],[49]. In the present study, we observed that colistin concentration declined rapidly over 180–240 min which is consistent with earlier findings[45],[49]. […] In the present study, the Vd of colistin was 2.45 ± 1.30 L/kg in ...

[4] = Long-term stability of colistin in rat plasma QC samples at −70 °C; conditions: rat plasma, 20 days, LC-MS/MS
Protocol: as §1, §2, §3

[5] = Freeze-thaw stability of colistin in rat plasma QC samples; conditions: five freeze-thaw cycles, −70 °C to room temperature
Protocol: as §1, §2, §3

[6] = Pharmacokinetic study of colistin in rats after IV colistin sulfate, plasma LC-MS/MS, non-compartmental analysis; conditions: male, rat, 15 mg/kg, SD
Protocol: as §2
(§4) Male Sprague Dawley® (MSD) rats (21 weeks ± 3 days of age) with a body weight of 450–550 g [supplied by the Animal Resource Center (ARC), Health Sciences Center (HSC), Kuwait University] were used to estimate the pharmacokinetic profile of colistin. The animals (n = 8) were housed in 12 h/12 h light/dark cycle. […] All the animals were subjected to left jugular vein cannulation, IV drug administration, and subsequent blood sampling. All surgical procedures were carried out under strict aseptic conditions. In addition, all surgical instruments and materials were autoclaved, all solutions were sterile and the surgical procedure was performed with the aid of surgical microscope (Leica wild M690). Animal body temperatures were maintained around 37.6 °C (rectal) by placing the animals on an electronic heating pad throughout the surgical procedure as well as the post-surgical recovery period. About 350 µl of rat blood sample was collected from each animal. From this sample, 50 µl of blood sample was transferred to a capillary tube, sealed with the sealant clay at one end and centrifuged to calculate the Packed Cell Volume (PCV); i.e., Hematocrit. The remaining rat blood sample (300 µl) was centrifuged at 9000 X g for 10 min and aliquots of 100 µl of plasma sample was collected and stored at −70 °C pending analysis.
(§5) Colistin was quantified in the biological samples by the present LC-MS/MS method and then the pharmacokinetic parameters (t1/2, CL, Vd, AUC) were estimated by non-compartmental method employing Kinetica® software, version 5.1 (Thermo Fisher Scientific, Waltham, USA).

[7] = cited from earlier work; remark: listed apart in the source
Protocol: However, colistin sulphate has been reported to be well absorbed after an oral administration in infants. […] The standards and quality control samples concentrations were selected based on the therapeutic range of colistin. The expected colistin serum levels according to the antimicrobial reference laboratory assay service are 5–15 mg/L and 2–4 mg/L for the peak and tough concentrations, respectively. […] Choosing the animal species to perform the pharmacokinetic study was based on the similarity of colistin pharmacokinetic profile between animal species and humans. […] The species that has the closest pharmacokinetic profile to humans are rats[43]–[45].

[8] = in vivo; conditions: male, Sprague Dawley, rat, iv, 15 mg/kg
Protocol: as §2, §4, §5

For `CC[C@H](C)CCCCC(=O)N[C@@H](CCN)C(=O)N[C@H](C(=O)N[C@@H](CCN)C(=O)N[C@H]1CCNC(=O)[C@H]([C@@H](C)O)NC(=O)[C@H](CCN)NC(=O)[C@H](CCN)NC(=O)[C@H](CC(C)C)NC(=O)[C@@H](CC(C)C)NC(=O)[C@H](CCN)NC1=O)[C@@H](C)O` [colistin] (X1-[Dab]T[Dab][Dab][Dab][dL]L[Dab][Dab]T; lactam 4-C), the “deviation of result at each level from nominal concentration in the autosampler” value ([1]; autosampler environment, 4 °C) was at most 15%, the “autosampler stability (in words)” value ([1]; processed samples, autosampler 4 °C, up to 24 hours, LC-MS/MS) was “stable; also recorded: acceptable” and the “benchtop (room temperature) stability (in words)” value [2] was “in-stability”. For the same compound, the “benchtop (room temperature) stability (in words)” value ([2]; listed as Colistin) was “not stable”, the t1/2 ([3]; rats, another study) was 0.928 ± 0.322 h and the t1/2 ([3]; rats, dose ranging study, dose 15 mg/kg) was 0.54 ± 0.0833 h. The Vd ([3]; rats, earlier report) was 0.50 ± 0.06 L/kg, the “AUC0-∞” value ([3]; rats, mean ± S.D., other investigators, SD) was 2600 ± 470 ng·h/mL and the “total body clearance (CL)” value ([3]; rats, reported by other investigators) was 11.7 ± 1.8 mL/min/kg. For the same compound, the CLR ([3]; rats) was 5.2 ± 0.4 mL/min/kg, the Vd ([3]; rats) was 0.496 ± 0.06 L/kg and the t1/2 ([3]; rats) was 1.24 ± 0.22 h. The “long-term stability (in words)” value [4] was “stable; also recorded: acceptable”, the “deviation of resulting concentrations from nominal after freeze-thaw” value ([5]; plasma samples) was at most 15% and the “freeze-thaw stability (in words)” value ([5]; rat plasma, LC-MS/MS) was “stable; also recorded: acceptable”. The clearance ([6]; Sprague Dawley (MSD)) was 25.5 ± 10.6 mL/min/kg, the AUC(0-inf) ([6]; Sprague Dawley) was 10500 ng·h/mL and the Vd ([6]; Sprague Dawley) was 2.45 ± 1.29 L/kg. The half-life ([6]; Sprague Dawley) was 1.07 ± 0.605 h, the minimum concentration ([7]; Markou and colleagues, steady state) was 1.03 ± 0.44 mg/L and the “maximum steady state concentration” value ([7]; Markou and colleagues) was 2.93 ± 1.24 mg/L. For the same compound, the elimination half-life ([7]; colistin, eliminated extra-renally) was 3 h, the Vd ([7]; humans) was 12.4 L and the t1/2 ([7]; humans) was 3 h.

In the case of `CC(C)CCCCC(=O)N[C@@H](CCN)C(=O)N[C@H](C(=O)N[C@@H](CCN)C(=O)N[C@H]1CCNC(=O)[C@H]([C@@H](C)O)NC(=O)[C@H](CCN)NC(=O)[C@H](CCN)NC(=O)[C@H](CC(C)C)NC(=O)[C@@H](CC(C)C)NC(=O)[C@H](CCN)NC1=O)[C@@H](C)O` [Colistin B, colistin B] ({Heptanoyl(6-Me)}-[Dab]T[Dab][Dab][Dab][dL]L[Dab][Dab]T; lactam 4-C), the “CL of the individual components” value ([3]; rat, in vivo) is given as 3.05 ± 0.62 mL/min/kg, the “t1/2 of the major components” value ([3]; rat, in vivo) is given as 1.52 ± 0.342 h and the level at 0.5 h [8] is given as 2640 ng/mL.

— article PMC7234998, “Quantification of Colistin in Plasma by Liquid Chromatography-Tandem Mass Spectrometry: Application to a Pharmacokinetic Study” (Scientific Reports, 2020)
